Assay results as given in patent US20250134109A1, “Antimicrobial, Antiviral and Antifungal Articles and Methods of Producing Such Articles” (Cupron, Inc., priority 2021, published 2025).

Experiment: Copper ion release from 1.0μ particles of various copper compounds over exposure cycles
Type: physicochemical
Text: In many embodiments, it is possible to provide ion release rates that are tailored to the specific application. For example, embodiments include articles that comprise first particles having a first ion release rate and second particles having a second ion release rate.
The ion release rates listed may be considered to be an average ion release rate of a plurality of particles or powder having an average particle size of 1 micron also. […]

| Compound | number of exposures in which copper ions are released into a fluid (as shown in Table 1) | Copper ion release from 1.0μ particles (exposure cycle 0) | Copper ion release from 1.0μ particles (exposure cycle 5) | Copper ion release from 1.0μ particles (exposure cycle 10) | Copper ion release from 1.0μ particles (exposure cycle 15) | Copper ion release from 1.0μ particles (exposure cycle 20) | Copper ion release from 1.0μ particles (exposure cycle 25) | Copper ion release from 1.0μ particles (exposure cycle 30) | Copper ion release from 1.0μ particles (exposure cycle 35) | Copper ion release from 1.0μ particles (exposure cycle 40) | Copper ion release from 1.0μ particles (exposure cycle 45) | Copper ion release from 1.0μ particles (exposure cycle 50) |
| --- | --- | --- | --- | --- | --- | --- | --- | --- | --- | --- | --- | --- |
| O=S(=O)([O-])[O-].[Cu+2] [CuSO4, copper sulfate] | less than five exposures | 100.0 ppm | 0.0 ppm | 0.0 ppm | 0.0 ppm | 0.0 ppm | 0.0 ppm | 0.0 ppm | 0.0 ppm | 0.0 ppm | 0.0 ppm | 0.0 ppm |
| [Cu+].[I-] [Cul, cuprous iodide] | – | 6.0 ppm | 3.0 ppm | 1.5 ppm | 0.7 ppm | 0.4 ppm | 0.2 ppm | 0.1 ppm | 0.0 ppm | 0.0 ppm | 0.0 ppm | 0.0 ppm |
| copper sulfide [Cu2S] | – | 0.5 ppm | 0.5 ppm | 0.5 ppm | 0.5 ppm | 0.5 ppm | 0.5 ppm | 0.5 ppm | 0.5 ppm | 0.5 ppm | 0.5 ppm | 0.5 ppm |
| cuprous thiocyanate [CuSCN] | – | 4.0 ppm | 2.7 ppm | 1.8 ppm | 1.3 ppm | 0.9 ppm | 0.6 ppm | 0.4 ppm | 0.3 ppm | 0.2 ppm | 0.1 ppm | 0.0 ppm |
